According to DBAASP:
Values after ≈ are worked out from the molar mass of the structure shown. Each block holds one molecule with its values, some of them ahead of it.

Tests used:
Assay in all cases: ≥ marks a high value that may be exact or a test limit, other limits are often not marked, values filed in µg/mL are converted to µM
[1] = tested on: Staphylococcus aureus USA 300
[2] = tested on: Candida albicans ATCC 90028
[3] = tested on: Escherichia coli NCTC 12923
[4] = tested on: Acinetobacter baumannii ATCC 17978
[5] = tested on: Klebsiella pneumoniae NCTC 13368
[6] = tested on: Staphylococcus aureus ATCC 9144
[7] = tested on: Pseudomonas aeruginosa PAO1
[8] = tested on: Staphylococcus xylosus DSM 20287
[9] = tested on: Escherichia coli DSM 1116
[10] = tested on: Bacillus subtilis DSM 347
[11] = tested on: Franconibacter helveticus DSM 18390
[12] = tested on: Bacillus subtilis ATCC 6633
[13] = tested on: Staphylococcus aureus ATCC 29213
[14] = tested on: Pseudomonas aeruginosa NCIB 10421
Micrococcus luteus A270 = tested on: Micrococcus luteus A270
[15] = tested on: Enterobacter cloacae beta-12
Escherichia coli SBS 363 = tested on: Escherichia coli SBS 363
Candida albicans MDM8 = tested on: Candida albicans MDM8
[16] = tested on: Bacillus megaterium ATCC 10778
[17] = tested on: Serratia marcescens ATCC 4112
[18] = tested on: Candida tropicalis IOC 4560
[19] = tested on: Candida viswanathii NBRC 10321
[20] = tested on: Micrococcus luteus NBRC 3333
[21] = tested on: Escherichia coli NBRC 3972
[22] = tested on: Aspergillus oryzae NBRC 100959
[23] = tested on: Staphylococcus epidermidis NBRC 12993
[24] = tested on: Lactiplantibacillus plantarum 8014
[25] = tested on: Escherichia coli ATCC 25922
[26] = tested on: Lacticaseibacillus rhamnosus 1.0936
Escherichia coli UB1005 = tested on: Escherichia coli UB1005
[27] = tested on: Staphylococcus aureus ATCC 25923
[28] = tested on: Lacticaseibacillus rhamnosus 1.0385
Escherichia coli K99 = tested on: Escherichia coli K99
[29] = tested on: Salmonella enterica subsp. enterica serovar Typhimurium C77-31
Escherichia coli K88 = tested on: Escherichia coli K88
[30] = tested on: Salmonella enterica subsp. enterica serovar Typhimurium ATCC 14028
[31] = tested on: Salmonella enterica subsp. enterica serovar Pullorum C79-13
[32] = tested on: Pseudomonas aeruginosa ATCC 27853
[33] = tested on: Lacticaseibacillus rhamnosus 7469
[34] = tested on: Lacticaseibacillus rhamnosus 1.0911
[35] = tested on: Staphylococcus aureus ATCC 43300

Structure (SMILES): C[C@H](NC(=O)CNC(=O)[C@H](CCCCN)NC(=O)[C@@H](N)CS)C(=O)N[C@@H](Cc1ccccc1)C(=O)N[C@@H](CCCCN)C(=O)N[C@@H](CCC(N)=O)C(=O)N[C@H](C(=O)N[C@@H](CS)C(=O)N[C@@H](CCCCN)C(=O)N[C@@H](CS)C(=O)N[C@@H](Cc1ccc(O)cc1)C(N)=O)[C@@H](C)O [CKGAFKQTCKCY]
- MIC [1]: ≥ 92.8 µM
- MIC [2]: 4.4 µM (≈ 6.07 µg/mL)
- MIC [3]: ≥ 92.8 µM
- MIC [4]: ≥ 92.8 µM
- MIC [5]: ≥ 92.8 µM
- MIC [6]: ≥ 92.8 µM
- MIC [7]: > 92.8 µM

Structure (SMILES): CC[C@H](C)[C@H](N)C(=O)N[C@@H](C)C(=O)N[C@@H](CCCCN)C(=O)N[C@H](C(=O)N[C@@H](C)C(=O)NCC(=O)N[C@@H](CCCCN)C(=O)N[C@H](C(=O)N[C@@H](C)C(=O)N[C@@H](CCCCN)C(=O)N[C@H](C(=O)N[C@@H](C)C(=O)NCC(=O)N[C@@H](CCCCN)C(=O)N[C@H](C(=O)N[C@@H](C)C(=O)N[C@@H](CCCCN)C(=O)N[C@H](C(=O)N[C@@H](C)C(=O)NCC(=O)N[C@@H](CCCCN)C(=O)N[C@H](C(=O)N[C@@H](C)C(N)=O)[C@@H](C)CC)[C@@H](C)CC)[C@@H](C)CC)[C@@H](C)CC)[C@@H](C)CC)[C@@H](C)CC [IAKIAGKIAKIAGKIAKIAGKIA]
- MIC [8]: 0.89 µM (≈ 2 µg/mL)
- MIC [9]: 1.78 µM (≈ 4 µg/mL)
- MIC [10]: 0.89 µM (≈ 2 µg/mL)
- MIC [11]: 1.26 µM (≈ 2.83 µg/mL)

Structure (SMILES): CC[C@H](C)[C@H](N)C(=O)N[C@@H](C)C(=O)N[C@@H](CCCCN)C(=O)N[C@H](C(=O)N[C@@H](C)C(=O)NCC(=O)N[C@@H](CCCCN)C(=O)N[C@H](C(=O)N[C@@H](C)C(=O)N[C@@H](CCCCN)C(=O)N[C@H](C(=O)N[C@@H](C)C(=O)NCC(=O)N[C@@H](CCCCN)C(=O)N[C@H](C(=O)N[C@@H](C)C(N)=O)[C@@H](C)CC)[C@@H](C)CC)[C@@H](C)CC)[C@@H](C)CC [IAKIAGKIAKIAGKIA]
- MIC [8]: ≥ 163 µM
- MIC [9]: ≥ 163 µM
- MIC [10]: 28.9 µM (≈ 45.2 µg/mL)
- MIC [11]: ≥ 116 µM

The next lines start with results.

- MIC [12]: 0.78 µM (≈ 1.2 µg/mL)
- MIC [13]: 6.25 µM (≈ 9.61 µg/mL)
- MIC [14]: 25 µM (≈ 38.4 µg/mL)
- MIC (Micrococcus luteus A270): 0.78 µM (≈ 1.2 µg/mL)
- MIC [15]: 12.5 µM (≈ 19.2 µg/mL)
- MIC (Escherichia coli SBS 363): 3.13 µM (≈ 4.81 µg/mL)
- MIC (Candida albicans MDM8): 3.13 µM (≈ 4.81 µg/mL)
- MIC [16]: 0.78 µM (≈ 1.2 µg/mL)
- MIC [17]: 0.78 µM (≈ 1.2 µg/mL)
- MIC [18]: 1.56 µM (≈ 2.4 µg/mL)
Structure (SMILES): CC[C@H](C)[C@H](N)C(=O)N[C@@H](CC(C)C)C(=O)NCC(=O)N[C@@H](CCCCN)C(=O)N[C@@H](Cc1ccccc1)C(=O)N[C@@H](Cc1c[nH]c2ccccc12)C(=O)N[C@@H](CCC(=O)O)C(=O)NCC(=O)N[C@H](C(=O)N[C@@H](CCCCN)C(=O)N[C@@H](CO)C(=O)N[C@@H](CC(C)C)C(=O)N[C@@H](Cc1ccccc1)C(N)=O)[C@@H](C)CC [ILGKFWEGIKSLF]

- MIC [12]: 0.78 µM (≈ 1.22 µg/mL)
- MIC [13]: 1.56 µM (≈ 2.43 µg/mL)
- MIC [14]: ≥ 50 µM
- MIC (Micrococcus luteus A270): 0.78 µM (≈ 1.22 µg/mL)
- MIC [15]: 12.5 µM (≈ 19.5 µg/mL)
- MIC (Escherichia coli SBS 363): 0.78 µM (≈ 1.22 µg/mL)
- MIC (Candida albicans MDM8): 3.13 µM (≈ 4.88 µg/mL)
- MIC [16]: 0.78 µM (≈ 1.22 µg/mL)
- MIC [17]: 0.36 µM (≈ 0.561 µg/mL)
- MIC [18]: 3.13 µM (≈ 4.88 µg/mL)
Structure (SMILES): CC[C@H](C)[C@H](N)C(=O)N[C@@H](CC(C)C)C(=O)N[C@@H](CC(C)C)C(=O)N[C@@H](CCCCN)C(=O)N[C@H](C(=O)N[C@@H](Cc1c[nH]c2ccccc12)C(=O)N[C@@H](CCC(=O)O)C(=O)NCC(=O)N[C@H](C(=O)N[C@@H](CCCCN)C(=O)N[C@@H](CO)C(=O)N[C@@H](CC(C)C)C(=O)N[C@@H](Cc1ccccc1)C(N)=O)[C@@H](C)CC)[C@@H](C)CC [ILLKIWEGIKSLF]

- MIC [19]: 15.6 µM (≈ 25 µg/mL)
- MIC [20]: 15.6 µM (≈ 25 µg/mL)
- MIC [21]: ≥ 125 µM
- MIC [22]: 7.78 µM (≈ 12.5 µg/mL)
- MIC [23]: 15.6 µM (≈ 25 µg/mL)
Structure (SMILES): CC[C@H](C)[C@H](NC(=O)[C@H](CCCCN)NC(=O)[C@@H](N)CCCN=C(N)N)C(=O)N[C@@H](CCCCN)C(=O)N[C@@H](CCCN=C(N)N)C(=O)N[C@@H](Cc1ccc(O)cc1)C(=O)N[C@@H](CC(C)C)C(=O)N[C@@H](CCCN=C(N)N)C(=O)N[C@@H](CCCN=C(N)N)C(=O)N[C@@H](CCSC)C(=O)N[C@@H](Cc1c[nH]c2ccccc12)C(=O)O [RKIKRYLRRMW]

- MIC [25]: 16 µM (≈ 15.3 µg/mL)
- MIC [26]: ≥ 64 µM
- MIC (Escherichia coli UB1005): 16 µM (≈ 15.3 µg/mL)
- MIC [27]: 8 µM (≈ 7.67 µg/mL)
- MIC [28]: ≥ 64 µM
- MIC (Escherichia coli K99): 16 µM (≈ 15.3 µg/mL)
- MIC [29]: 16 µM (≈ 15.3 µg/mL)
- MIC (Escherichia coli K88): 16 µM (≈ 15.3 µg/mL)
- MIC [30]: 32 µM (≈ 30.7 µg/mL)
- MIC [31]: ≥ 64 µM
- MIC [32]: > 64 µM
- MIC [33]: ≥ 64 µM
- MIC [34]: ≥ 64 µM
- MIC [35]: 8 µM (≈ 7.67 µg/mL)
Structure (SMILES): CC(C)C[C@H](NC(=O)[C@H](CC(C)C)NC(=O)[C@H](Cc1c[nH]c2ccccc12)NC(=O)[C@H](Cc1c[nH]c2ccccc12)NC(=O)[C@H](Cc1c[nH]c2ccccc12)NC(=O)[C@@H](N)CCCN=C(N)N)C(N)=O [RWWWLL]
- MIC [24]: ≥ 64 µM
